These are literature values, as cited in patent US20170042147A1, “A miticide composition of prolonged action and its manufacturing process, a miticide strip and a procedure to control Varroa destructor mite” (COOP. DE TRABAJO APÍCOLA PAMPERO LTDA, priority 2014, published 2017).

This data set has as its system Varroa. As to conditions: bee hives without brood; use in Europe.

Molecules are shown by their SMILES.

For the compound `O=C(O)C(=O)O` [Oxalic acid], the “efficacy against Varroa” value is reported as “excellent efficacy”.
